T/C data for 13 compounds are collected here from PubChem BioAssay AID184 (DTP/NCI, 2004).

For the assay, the system named is BALB/cJ mice, ADJ-PC-6 ip tumor, median survival T/C. Briefly: NCI In Vivo Anticancer Drug Screen. Data for tumor model ADJ-PC-6 (intraperitoneal) in BALB/cJ mice. Particulars: endpoint: median survival time, higher = longer survival. How it is done: The antitumor activity of compounds was measured in mice bearing transplantable tumors. Survival or tumor size were measured and the results are expressed as the measurement made in the treated group (T) divided by the measurement made in the vehicle treated control group (C). The tumor model used in this assay is ADJ-PC-6 (intraperitoneal) in BALB/cJ mice

[1] abbreviates: dose: 5.0 mg/kg/injection, schedule: Q04DX003 (ip), vehicle: other.
Setting [2] is: dose: 10.0 mg/kg/injection, schedule: Q04DX003 (ip), vehicle: other.
Setting [3] is: dose: 10.0 mg/kg/injection, schedule: Q04DX003 (ip), vehicle: saline.
Where [4] appears, read: dose: 20.0 mg/kg/injection, schedule: Q04DX003 (ip), vehicle: saline.
Where [5] appears, read: dose: 40.0 mg/kg/injection, schedule: Q04DX003 (ip), vehicle: saline.

“And” between values parts separate entries of the source, which are not always exact repeats. Identical values can stand only once. Toxic doses and inconclusive results are not listed.

Consider `CC1CCC(NC(=O)N(CCCl)N=O)CC1` (centres undefined), for which the T/C is 120 % of control (dose: 1.25 mg/kg/injection, schedule: Q04DX003 (ip), vehicle: other); 182 % of control and 183 % of control (dose: 2.5 mg/kg/injection, schedule: Q04DX003 (ip), vehicle: other); 158 % of control and 355 % of control under setting [1]; 337 % of control and 355 % of control under setting [2]; 272 % of control and 297 % of control (dose: 20.0 mg/kg/injection, schedule: Q04DX003 (ip), vehicle: other).

On to `COc1cc2c(c(OC)c1OC)-c1ccc(OC)c(=O)cc1[C@@H](NC(C)=O)CC2`, for which the T/C (dose: 0.05 mg/kg/injection, schedule: Q01DX009 (ip), vehicle: Klucel (hydroxypropylcellulose) (HPC)) was 99 % of control; the T/C (dose: 0.1 mg/kg/injection, schedule: Q01DX009 (ip), vehicle: Klucel (hydroxypropylcellulose) (HPC)) is 88 % of control; the T/C (dose: 0.2 mg/kg/injection, schedule: Q01DX009 (ip), vehicle: Klucel (hydroxypropylcellulose) (HPC)) was 102 % of control; the T/C (dose: 0.4 mg/kg/injection, schedule: Q01DX009 (ip), vehicle: Klucel (hydroxypropylcellulose) (HPC)) is 108 % of control.

Take `CS(=O)(=O)c1ncc(Br)cn1`: the T/C was 105 % of control (dose: 25.0 mg/kg/injection, schedule: Q01DX009 (ip), vehicle: saline with Tween-80); 105 % of control (dose: 50.0 mg/kg/injection, schedule: Q01DX009 (ip), vehicle: saline with Tween-80); 118 % of control (dose: 100.0 mg/kg/injection, schedule: Q01DX009 (ip), vehicle: saline with Tween-80); 100 % of control (dose: 200.0 mg/kg/injection, schedule: Q01DX009 (ip), vehicle: saline with Tween-80).

As to `Cc1c2ccncc2c(C)c2c1[nH]c1ccccc12`, the T/C (dose: 6.25 mg/kg/injection, schedule: Q04DX003 (ip), vehicle: saline with Tween-80) was 122 % of control; the T/C (dose: 25.0 mg/kg/injection, schedule: Q04DX003 (ip), vehicle: saline with Tween-80) was 190 % of control; the T/C (dose: 50.0 mg/kg/injection, schedule: Q04DX003 (ip), vehicle: saline with Tween-80) is 255 % of control; the T/C (dose: 100.0 mg/kg/injection, schedule: Q04DX003 (ip), vehicle: saline with Tween-80) is 250 % of control.

For `CC(=O)N(C)c1ccc(Nc2cc(C)[nH]c3ccc4ncnc4c23)cc1`, the T/C is 100 % of control under setting [3], 162 % of control under setting [4] and 107 % of control under setting [5].

As to `CN(C)c1nc(N(C)C)nc(N(C)C)n1`, the T/C by setting is: (dose: 20.0 mg/kg/injection, schedule: Q01DX009 (ip), vehicle: saline with Tween-80) 102 % of control; (dose: 40.0 mg/kg/injection, schedule: Q01DX009 (ip), vehicle: Klucel (hydroxypropylcellulose) (HPC)) 96 % of control; (dose: 40.0 mg/kg/injection, schedule: Q01DX009 (ip), vehicle: saline with Tween-80) 100 % of control.

Consider `Cc1ncc(CO)c(CO)c1O`, for which the T/C (dose: 50.0 mg/kg/injection, schedule: Q01DX014 (sc), vehicle: saline) is 115 % of control; the T/C (dose: 100.0 mg/kg/injection, schedule: Q01DX014 (sc), vehicle: saline) was 99 % of control; the T/C (dose: 200.0 mg/kg/injection, schedule: Q01DX014 (sc), vehicle: saline) is 120 % of control; the T/C (dose: 400.0 mg/kg/injection, schedule: Q01DX014 (sc), vehicle: saline) was 117 % of control.

With `O=C(O)CCCc1ccc(N(CCCl)CCCl)cc1`, the T/C (dose: 1.25 mg/kg/injection, schedule: Q04DX003 (ip), vehicle: saline with Tween-80) is 106 % of control; the T/C (dose: 2.0 mg/kg/injection, schedule: Q04DX003 (ip), vehicle: saline with Tween-80) was 102 % of control; the T/C (dose: 2.5 mg/kg/injection, schedule: Q04DX003 (ip), vehicle: saline with Tween-80) is 105 % of control; the T/C (dose: 4.0 mg/kg/injection, schedule: Q04DX003 (ip), vehicle: saline with Tween-80) was 102 % of control; the T/C (dose: 5.0 mg/kg/injection, schedule: Q04DX003 (ip), vehicle: saline with Tween-80) is 105 % of control; the T/C (dose: 8.0 mg/kg/injection, schedule: Q04DX003 (ip), vehicle: saline with Tween-80) is 122 % of control. The T/C reads like this: (dose: 16.0 mg/kg/injection, schedule: Q04DX003 (ip), vehicle: saline with Tween-80) 173 % of control; (dose: 20.0 mg/kg/injection, schedule: Q04DX003 (ip), vehicle: saline with Tween-80) 260 % of control; (dose: 32.0 mg/kg/injection, schedule: Q04DX003 (ip), vehicle: saline with Tween-80) 189 % of control.

In the case of `O=P1(N(CCCl)CCCl)NCCCO1` (centres undefined), the T/C is 99 % of control under setting [3]; 88 % of control (dose: 10.0 mg/kg/injection, schedule: Q04DX003 (iv), vehicle: saline); 108 % of control (dose: 19.4 mg/kg/injection, schedule: Q04DX003 (ip), vehicle: saline); 109 % of control and 110 % of control under setting [4]; 95 % of control (dose: 20.0 mg/kg/injection, schedule: Q04DX003 (iv), vehicle: saline); 166 % of control (dose: 32.4 mg/kg/injection, schedule: Q04DX003 (ip), vehicle: saline). For the same compound, the T/C is, setting by setting: under setting [5], 173 % of control and 178 % of control; (dose: 54.0 mg/kg/injection, schedule: Q04DX003 (ip), vehicle: saline) 189 % of control; (dose: 80.0 mg/kg/injection, schedule: Q04DX003 (ip), vehicle: saline) 168 % of control and 335 % of control; (dose: 80.0 mg/kg/injection, schedule: Q04DX003 (iv), vehicle: saline) 194 % of control; (dose: 90.0 mg/kg/injection, schedule: Q04DX003 (ip), vehicle: saline) 267 % of control; (dose: 150.0 mg/kg/injection, schedule: Q04DX003 (ip), vehicle: saline) 340 % of control. Further, the T/C (dose: 160.0 mg/kg/injection, schedule: Q04DX003 (ip), vehicle: saline) is 194 % of control and 335 % of control; the T/C (dose: 160.0 mg/kg/injection, schedule: Q04DX003 (iv), vehicle: saline) was 194 % of control.

Regarding `COc1cc(NS(C)(=O)=O)ccc1Nc1c2ccccc2nc2ccccc12`, the T/C was 161 % of control under setting [1] and 205 % of control under setting [2].

As to `CC1OC(=O)C(C(C)C)NC(=O)C(C(C)C)OC(=O)C(C(C)C)NC(=O)C(C)OC(=O)C(C(C)C)NC(=O)C(C(C)C)OC(=O)C(C(C)C)NC(=O)C(C)OC(=O)C(C(C)C)NC(=O)C(C(C)C)OC(=O)C(C(C)C)NC1=O` (centres undefined), the T/C was 87 % of control (dose: 0.75 mg/kg/injection, schedule: Q04DX003 (ip), vehicle: Klucel (hydroxypropylcellulose) (HPC)); 102 % of control (dose: 1.5 mg/kg/injection, schedule: Q04DX003 (ip), vehicle: Klucel (hydroxypropylcellulose) (HPC)); 100 % of control (dose: 2.0 mg/kg/injection, schedule: Q01DX009 (ip), vehicle: Klucel (hydroxypropylcellulose) (HPC)); 104 % of control (dose: 4.0 mg/kg/injection, schedule: Q01DX009 (ip), vehicle: Klucel (hydroxypropylcellulose) (HPC)); 185 % of control (dose: 8.0 mg/kg/injection, schedule: Q01DX009 (ip), vehicle: Klucel (hydroxypropylcellulose) (HPC)).

Take `CC1(C)N=C(N)N=C(N)N1c1ccc(CCCCc2ccc(S(=O)(=O)F)cc2Cl)c(Cl)c1`: the T/C (dose: 2.5 mg/kg/injection, schedule: Q01DX009 (ip), vehicle: saline) was 88 % of control; the T/C (dose: 5.0 mg/kg/injection, schedule: Q01DX009 (ip), vehicle: saline) is 101 % of control; the T/C (dose: 10.0 mg/kg/injection, schedule: Q01DX009 (ip), vehicle: saline) is 106 % of control; the T/C (dose: 12.5 mg/kg/injection, schedule: Q04DX003 (ip), vehicle: Klucel (hydroxypropylcellulose) (HPC)) was 96 % of control; the T/C (dose: 20.0 mg/kg/injection, schedule: Q01DX009 (ip), vehicle: saline) was 119 % of control; the T/C (dose: 25.0 mg/kg/injection, schedule: Q04DX003 (ip), vehicle: Klucel (hydroxypropylcellulose) (HPC)) was 91 % of control. For the same compound, the T/C (dose: 50.0 mg/kg/injection, schedule: Q04DX003 (ip), vehicle: Klucel (hydroxypropylcellulose) (HPC)) is 92 % of control; the T/C (dose: 100.0 mg/kg/injection, schedule: Q04DX003 (ip), vehicle: Klucel (hydroxypropylcellulose) (HPC)) is 91 % of control; the T/C (dose: 200.0 mg/kg/injection, schedule: Q04DX003 (ip), vehicle: Klucel (hydroxypropylcellulose) (HPC)) was 91 % of control.

As to `Nc1nc(F)nc2c1ncn2C1OC(COP(=O)(O)O)C(O)C1O` (centres undefined), the T/C by setting is: (dose: 25.0 mg/kg/injection, schedule: Q01DX009 (ip), vehicle: saline) 90 % of control; (dose: 50.0 mg/kg/injection, schedule: Q01DX009 (ip), vehicle: saline) 91 % of control; (dose: 100.0 mg/kg/injection, schedule: Q01DX009 (ip), vehicle: saline) 104 % of control.
